# Measurements published in ChEMBL document CHEMBL1671627, “Increasing trends in antimicrobial resistance among clinically important anaerobes and Bacteroides fragilis isolates causing nosocomial infections: emerging resistance to carbapenems” (2008).
# Experiments:
# Bacteroides fragilis [1] = test: Antibacterial activity against Bacteroides fragilis assessed as susceptible isolates by CLSI agar dilution method; assay type: functional
# Bacteroides fragilis [2] = test: Antibacterial activity against Bacteroides fragilis assessed as resistant isolates by CLSI agar dilution method; assay type: functional
# [3] = test system: Bacteroides thetaiotaomicron; test: Antibacterial activity against beta-lactamase producing Bacteroides thetaiotaomicron assessed as susceptible isolates by CLSI agar dilution method; assay type: functional
# Phocaeicola vulgatus [4] = test: Antibacterial activity against beta-lactamase producing Bacteroides vulgatus by CLSI agar dilution method; assay type: functional
# Phocaeicola vulgatus [5] = test: Antibacterial activity against beta-lactamase producing Bacteroides vulgatus assessed as susceptible isolates by CLSI agar dilution method; assay type: functional
# Phocaeicola vulgatus [6] = test: Antibacterial activity against beta-lactamase producing Bacteroides vulgatus assessed as resistant isolates by CLSI agar dilution method; assay type: functional
# Bacteroides uniformis [7] = test: Antibacterial activity against beta-lactamase producing Bacteroides uniformis by CLSI agar dilution method; assay type: functional
# Bacteroides uniformis [8] = test: Antibacterial activity against beta-lactamase producing Bacteroides uniformis assessed as susceptible isolates by CLSI agar dilution method; assay type: functional
# Bacteroides uniformis [9] = test: Antibacterial activity against beta-lactamase producing Bacteroides uniformis assessed as resistant isolates by CLSI agar dilution method; assay type: functional
# Bacteroides caccae [10] = test: Antibacterial activity against beta-lactamase producing Bacteroides caccae by CLSI agar dilution method; assay type: functional
# Bacteroides caccae [11] = test: Antibacterial activity against beta-lactamase producing Bacteroides caccae assessed as susceptible isolates by CLSI agar dilution method; assay type: functional
# Bacteroides caccae [12] = test: Antibacterial activity against beta-lactamase producing Bacteroides caccae assessed as resistant isolates by CLSI agar dilution method; assay type: functional
# Fusobacterium varium [13] = test: Antibacterial activity against Fusobacterium varium by CLSI agar dilution method; assay type: functional
# Fusobacterium nucleatum [14] = test: Antibacterial activity against Fusobacterium nucleatum by CLSI agar dilution method; assay type: functional
# Fusobacterium mortiferum [15] = test: Antibacterial activity against Fusobacterium mortiferum by CLSI agar dilution method; assay type: functional
# [16] = test system: Fusobacterium necrophorum; test: Antibacterial activity against Fusobacterium necrophorum by CLSI agar dilution method; assay type: functional
# Fusobacterium varium [17] = test: Antibacterial activity against Fusobacterium varium assessed as susceptible isolates by CLSI agar dilution method; assay type: functional
# Fusobacterium nucleatum [18] = test: Antibacterial activity against Fusobacterium nucleatum assessed as susceptible isolates by CLSI agar dilution method; assay type: functional
# Fusobacterium mortiferum [19] = test: Antibacterial activity against Fusobacterium mortiferum assessed as susceptible isolates by CLSI agar dilution method; assay type: functional
# [20] = test system: Fusobacterium necrophorum; test: Antibacterial activity against Fusobacterium necrophorum assessed as susceptible isolates by CLSI agar dilution method; assay type: functional
# Fusobacterium varium [21] = test: Antibacterial activity against Fusobacterium varium assessed as resistant isolates by CLSI agar dilution method; assay type: functional
# Fusobacterium nucleatum [22] = test: Antibacterial activity against Fusobacterium nucleatum assessed as resistant isolates by CLSI agar dilution method; assay type: functional
# Fusobacterium mortiferum [23] = test: Antibacterial activity against Fusobacterium mortiferum assessed as resistant isolates by CLSI agar dilution method; assay type: functional
# [24] = test system: Fusobacterium necrophorum; test: Antibacterial activity against Fusobacterium necrophorum assessed as resistant isolates by CLSI agar dilution method; assay type: functional
# Prevotella buccae [25] = test: Antibacterial activity against Prevotella buccae by CLSI agar dilution method; assay type: functional; details: Segatella buccae
# Prevotella bivia [26] = test: Antibacterial activity against Prevotella bivia by CLSI agar dilution method; assay type: functional
# Prevotella intermedia [27] = test: Antibacterial activity against Prevotella intermedia by CLSI agar dilution method; assay type: functional
# [28] = test system: Prevotella melaninogenica; test: Antibacterial activity against Prevotella melaninogenica by CLSI agar dilution method; assay type: functional
# Prevotella buccae [29] = test: Antibacterial activity against Prevotella buccae assessed as susceptible isolates by CLSI agar dilution method; assay type: functional, Segatella buccae
# Prevotella bivia [30] = test: Antibacterial activity against Prevotella bivia assessed as susceptible isolates by CLSI agar dilution method; assay type: functional
# Prevotella intermedia [31] = test: Antibacterial activity against Prevotella intermedia assessed as susceptible isolates by CLSI agar dilution method; assay type: functional
# [32] = test system: Prevotella melaninogenica; test: Antibacterial activity against Prevotella melaninogenica assessed as susceptible isolates by CLSI agar dilution method; assay type: functional
# Prevotella buccae [33] = test: Antibacterial activity against Prevotella buccae assessed as resistant isolates by CLSI agar dilution method; assay type: functional, Segatella buccae
# Prevotella bivia [34] = test: Antibacterial activity against Prevotella bivia assessed as resistant isolates by CLSI agar dilution method; assay type: functional
# Prevotella intermedia [35] = test: Antibacterial activity against Prevotella intermedia assessed as resistant isolates by CLSI agar dilution method; assay type: functional
# [36] = test system: Prevotella melaninogenica; test: Antibacterial activity against Prevotella melaninogenica assessed as resistant isolates by CLSI agar dilution method; assay type: functional
# Veillonella parvula = test: Antibacterial activity against Veillonella parvula by CLSI agar dilution method; assay type: functional
# Clostridium perfringens = test: microbe, parasite or virus in culture; assay type: functional
# [37] = test system: Clostridium paraputrificum; test: Antibacterial activity against beta-lactamase producing Clostridium paraputrificum by CLSI agar dilution method; assay type: functional
# Clostridium septicum [38] = test: Antibacterial activity against beta-lactamase producing Clostridium septicum by CLSI agar dilution method; assay type: functional
# Clostridium tertium [39] = test: Antibacterial activity against beta-lactamase producing Clostridium tertium by CLSI agar dilution method; assay type: functional
# [40] = test system: Clostridium paraputrificum; test: Antibacterial activity against beta-lactamase producing Clostridium paraputrificum assessed as susceptible isolates by CLSI agar dilution method; assay type: functional
# Clostridium septicum [41] = test: Antibacterial activity against beta-lactamase producing Clostridium septicum assessed as susceptible isolates by CLSI agar dilution method; assay type: functional
# Clostridium tertium [42] = test: Antibacterial activity against beta-lactamase producing Clostridium tertium assessed as susceptible isolates by CLSI agar dilution method; assay type: functional
# Bacteroides fragilis [43] = test: Antibacterial activity against Bacteroides fragilis by CLSI agar dilution method; assay type: functional
# [44] = test system: Bacteroides thetaiotaomicron; test: Antibacterial activity against beta-lactamase producing Bacteroides thetaiotaomicron by CLSI agar dilution method; assay type: functional
# [45] = test system: Clostridium paraputrificum; test: Antibacterial activity against beta-lactamase producing Clostridium paraputrificum assessed as resistant isolates by CLSI agar dilution method; assay type: functional
# Clostridium septicum [46] = test: Antibacterial activity against beta-lactamase producing Clostridium septicum assessed as resistant isolates by CLSI agar dilution method; assay type: functional
# Clostridium tertium [47] = test: Antibacterial activity against beta-lactamase producing Clostridium tertium assessed as resistant isolates by CLSI agar dilution method; assay type: functional
# [48] = test system: Peptostreptococcus anaerobius; test: Antibacterial activity against beta-lactamase producing Peptostreptococcus anaerobius by CLSI agar dilution method; assay type: functional
# [49] = test system: Peptostreptococcus anaerobius; test: Antibacterial activity against beta-lactamase producing Peptostreptococcus anaerobius assessed as susceptible isolates by CLSI agar dilution method; assay type: functional
# [50] = test system: Peptostreptococcus anaerobius; test: Antibacterial activity against beta-lactamase producing Peptostreptococcus anaerobius assessed as resistant isolates by CLSI agar dilution method; assay type: functional
# Parvimonas micra [51] = test: Antibacterial activity against beta-lactamase producing Micromonas micros by CLSI agar dilution method; assay type: functional
# Parvimonas micra [52] = test: Antibacterial activity against beta-lactamase producing Micromonas micros assessed as susceptible isolates by CLSI agar dilution method; assay type: functional
# Parvimonas micra [53] = test: Antibacterial activity against beta-lactamase producing Micromonas micros assessed as resistant isolates by CLSI agar dilution method; assay type: functional
# [54] = test system: Peptoniphilus asaccharolyticus; test: Antibacterial activity against beta-lactamase producing Peptoniphilus asaccharolyticus by CLSI agar dilution method; assay type: functional
# [55] = test system: Peptoniphilus asaccharolyticus; test: Antibacterial activity against beta-lactamase producing Peptoniphilus asaccharolyticus assessed as susceptible isolates by CLSI agar dilution method; assay type: functional
# [56] = test system: Peptoniphilus asaccharolyticus; test: Antibacterial activity against beta-lactamase producing Peptoniphilus asaccharolyticus assessed as resistant isolates by CLSI agar dilution method; assay type: functional
# Finegoldia magna [57] = test: Antibacterial activity against beta-lactamase producing Finegoldia magna by CLSI agar dilution method; assay type: functional
# Finegoldia magna [58] = test: Antibacterial activity against beta-lactamase producing Finegoldia magna assessed as susceptible isolates by CLSI agar dilution method; assay type: functional
# Finegoldia magna [59] = test: Antibacterial activity against beta-lactamase producing Finegoldia magna assessed as resistant isolates by CLSI agar dilution method; assay type: functional
smiles,measurement,setting,value
CCC[C@@H]1C[C@@H](C(=O)N[C@@H]([C@H]2O[C@H](SC)[C@H](O)[C@@H](O)[C@H]2O)[C@H](C)Cl)N(C)C1 [CLINDAMYCIN],Activity,Bacteroides fragilis [1],63%
same,Activity,Bacteroides fragilis [2],37%
same,Activity,[3],43%
same,MIC50,Phocaeicola vulgatus [4],2 µg/mL
same,MIC90,Phocaeicola vulgatus [4],> 128 µg/mL
same,Activity,Phocaeicola vulgatus [5],57%
same,Activity,Phocaeicola vulgatus [6],39%
same,MIC50,Bacteroides uniformis [7],2 µg/mL
same,MIC90,Bacteroides uniformis [7],> 128 µg/mL
same,Activity,Bacteroides uniformis [8],57%
same,Activity,Bacteroides uniformis [9],39%
same,MIC50,Bacteroides caccae [10],2 µg/mL
same,MIC90,Bacteroides caccae [10],> 128 µg/mL
same,Activity,Bacteroides caccae [11],57%
same,Activity,Bacteroides caccae [12],39%
same,MIC50,Fusobacterium varium [13],0.25 µg/mL
same,MIC90,Fusobacterium varium [13],4 µg/mL
same,MIC50,Fusobacterium nucleatum [14],0.25 µg/mL
same,MIC90,Fusobacterium nucleatum [14],4 µg/mL
same,MIC50,Fusobacterium mortiferum [15],0.25 µg/mL
same,MIC90,Fusobacterium mortiferum [15],4 µg/mL
same,MIC50,[16],0.25 µg/mL
same,MIC90,[16],4 µg/mL
same,Activity,Fusobacterium varium [17],85%
same,Activity,Fusobacterium nucleatum [18],85%
same,Activity,Fusobacterium mortiferum [19],85%
same,Activity,[20],85%
same,Activity,Fusobacterium varium [21],7%
same,Activity,Fusobacterium nucleatum [22],7%
same,Activity,Fusobacterium mortiferum [23],7%
same,Activity,[24],7%
same,MIC50,Prevotella buccae [25],0.12 µg/mL
same,MIC90,Prevotella buccae [25],> 128 µg/mL
same,MIC50,Prevotella bivia [26],0.12 µg/mL
same,MIC90,Prevotella bivia [26],> 128 µg/mL
same,MIC50,Prevotella intermedia [27],0.12 µg/mL
same,MIC90,Prevotella intermedia [27],> 128 µg/mL
same,MIC50,[28],0.12 µg/mL
same,MIC90,[28],> 128 µg/mL
same,Activity,Prevotella buccae [29],69%
same,Activity,Prevotella bivia [30],69%
same,Activity,Prevotella intermedia [31],69%
same,Activity,[32],69%
same,Activity,Prevotella buccae [33],31%
same,Activity,Prevotella bivia [34],31%
same,Activity,Prevotella intermedia [35],31%
same,Activity,[36],31%
same,MIC,Veillonella parvula,0.06 µg/mL
same,MIC50,Clostridium perfringens,1 µg/mL
same,MIC90,Clostridium perfringens,8 µg/mL
same,MIC50,[37],1 µg/mL
same,MIC90,[37],8 µg/mL
same,MIC50,Clostridium septicum [38],1 µg/mL
same,MIC90,Clostridium septicum [38],8 µg/mL
same,MIC50,Clostridium tertium [39],1 µg/mL
same,MIC90,Clostridium tertium [39],8 µg/mL
same,Activity,[40],75%
same,Activity,Clostridium septicum [41],75%
same,Activity,Clostridium tertium [42],75%
same,MIC50,Bacteroides fragilis [43],1 µg/mL
same,MIC90,Bacteroides fragilis [43],> 128 µg/mL
same,MIC50,[44],4 µg/mL
same,MIC90,[44],> 128 µg/mL
same,Activity,[45],14%
same,Activity,Clostridium septicum [46],14%
same,Activity,Clostridium tertium [47],14%
same,MIC50,[48],0.12 µg/mL
same,MIC90,[48],4 µg/mL
same,Activity,[49],88%
same,Activity,[50],9%
same,MIC50,Parvimonas micra [51],0.12 µg/mL
same,MIC90,Parvimonas micra [51],4 µg/mL
same,Activity,Parvimonas micra [52],88%
same,Activity,Parvimonas micra [53],9%
same,MIC50,[54],0.12 µg/mL
same,MIC90,[54],4 µg/mL
same,Activity,[55],88%
same,Activity,[56],9%
same,MIC50,Finegoldia magna [57],0.12 µg/mL
same,MIC90,Finegoldia magna [57],4 µg/mL
same,Activity,Finegoldia magna [58],88%
same,Activity,Finegoldia magna [59],9%
